Test results taken from patent US5985926A, “Method for inhibiting intracellular viral replication” (Cell Therapeutics, Inc., priority 1997, dated 1999).

What was measured:
[1] = tested on: CMV promoter in 293-EBNA cells; experiment: AP reporter gene expression from CMV promoter, 293-EBNA cells stably transfected with pCMV.AP; format: cell-based, human cytomegalovirus; human cells; details: Homo sapiens, 293-EBNA; FIG. 8; read-out: concentration inhibiting AP activity by 50% (CMV assay)
Procedure: An assay for measuring the anti-viral activity of the compounds involves testing the abilities of the compounds to inhibit gene expression directed by specific viral promoters in cell lines. Specifically, a plasmid construct, pCMV.AP, using the human cytomegalovirus (CMV) enhancer and promoter to direct the expression of the secreted human placental alkaline phosphatase reporter gene were transformed into a tumor cell line (e.g., 293-EBNA cells). The cultured cells were treated with various concentrations of the compounds. The expression of the alkaline phosphatase (AP) reporter gene in the individual cultures can then be measured by following the change in absorbance at A405 of the cell conditioned media in the presence of a suitable substrate (e.g., ortho-nitrophenol phosphate) (Berger et al., Gene 66:1,1988).
The construction of expression vectors for secreted placental alkaline phosphatase (sPAP) was performed by obtaining a mammalian episomal expression vector pBL3, derived from the plasmids pMEP4 and pCEP4 (Invitrogen Corp). Specifically, a 600 bp Spe I--Kpn I fragment spanning the CMV promoter from pCEP4 and a 9500 bp Xba I--Kpn I vector fragment from pMEP4 were isolated and ligated together to form pBL3. Full length sPAP cDNA was amplified by PCR using the plasmid pGEM4Z/SEAP (ATCC) as template with primers 5'-[…]-3' (SEQ ID NO. 1) and 5'-[…]-3' (SEQ ID NO. 2). The PCR product was then digested with Xba I and Sal I and inserted between the Nhe I site and the Xho I site within the multiple cloning region of pBL3. The resulting plasmid was designated as PCMV.AP.

[2] = Viability of 293-EBNA cells, Alamar Blue; format: cell-based, human; details: human, 293-ebna cells; read-out: LD50 (CMV assay, FIG. 9)
Procedure: (§1) Cell viability was measured by a colorimetric assay that uses Alamar Blue dye (Alamar, Inc.) to report cell proliferation, viability and cytotoxicity. This vital dye indicates cell activity by serving as substrate for mitochrondrial dehydrogenases for the formation of soluble dyes which can be quantitated by determining the difference in absorbance between A570 and A600 using a plate reader.
as §1, with “[…]” for “colorimetric”
This example illustrates that CT2576 suppressed both tat-dependent and TNF-α induced HIV-LTR transcription with an IC50 of approximately 10 μM. Study of the effects of CT2576 on cell toxicity was performed using the Alamar Blue™ dye (Alamar Biosciences) according to the manufacturer's instructions. CT2576 was not toxic to 293-EBNA cells at concentrations up to 35 μM. To show CT2576 can inhibit HIV expression, CT2576 was tested for the ability to block HIV p24 antigen expression in chronically or acutely infected cells. Specifically, CT2576 inhibited the TNF-α and IL-6 induced and the constitutive expression of HIV in the chronically infected U1 cells and in peripheral blood lymphocytes (PBL) freshly infected with a HIV strain from a clinical isolate with an IC50 of approximately 1 μM. Pharmacological inhibition of synthesis of selected PL may therefore be a novel therapeutic approach to suppression of HIV replication.

[3] = tested on: HIV-LTR promoter (tat transactivation) in 293-EBNA cells; experiment: AP reporter gene expression from HIV-LTR promoter with tat expression vector, 293-EBNA cells; format: cell-based, HIV; human cells
Text: The plasmid construct, pHIV.AP, using the human immunodeficiency virus (HIV) long terminal repeat (LTR) promoter (derived from pU3R-III CAT, Sodroski et al., Science 227:171, 1985) to direct the expression of the sPAP reporter gene, was made by replacing the CMV promoter region from pCMV.AP with the HIV-LTR promoter. PHIV.AP was co-transfected with pSV2tat72, an expression vector for the 72 amino acids tat protein from HIV (Frankel and Pabo, Cell 55:1189-1193, 1988), into 293-EBNA cells (Invitrogen). The cultured cells were treated with various concentrations of the compounds. The expression of the alkaline phosphatase (AP) reporter gene in the individual cultures was measured by following change in absorbance at 405 nm of the cell conditioned media in the presence of a suitable substrate (e.g., ortho-nitrophenol phosphate) (Berger et al., Gene 66:1-10, 1988).
We set up a cell-based system with a cell line cotransfected with an expression plasmid using HIV-1-LTR promoter to direct synthesis of AP reporter gene and an expression plasmid to direct synthesis of the first 72 amino acids of tat protein. Plasmid pREP7 (Invitrogen) was converted to pREP7b by deleting 2,040 bp EBNA-1 coding region and by replacing the pBR322 origin of replication (ori) with the pBluescript KS (Stratagene) ori region. The cDNA for secreted placental alkaline phosphatase (AP) was generated by PCR with the primers (5'-[…]-3')(SEQ ID NO. 3) and (5'-[…]-3') (SEQ ID NO. 4)using the plasmid pGEM-4Z/PLAP489 (American Type Culture Collection) as the template. The 2,000 bp Xba I-Sal I fragment obtained was ligated into a Nhe I/Xho I vector derived from pREP7b to generate the plasmid pREP7b.AP. The 44 bp Xba I-Bgl II fragment from plasmid pMEP4 (Invitrogen)and the 36 bp BamH I-Kpn I fragment from pREP7 were ligated into the Xba I-Kpn I vector fragment from pREP7b.AP to generate the plasmid pMCS.AP. The 720 bp Xho I-Hind III fragment encoding the HIV-LTR promoter from the plasmid pU3R-III-CAT (Sodroski et al., Science 227:171-173, 1985) was ligated into the Xho I-Hind III vector fragment of PMCS.AP to generate the plasmid pHIV.AP. The CMV promoter was derived from the 600 bp Spe I-Asp718 I fragment from pCEP4 (Invitrogen). The 360 bp SV40 early promoter fragments were produced from pSV2tat72 (Frankel et al., Cell 55:1189-1193,1988) by PCR using the primers (5'-[…]-3') (SEQ ID NO. 5) and (5'-[…]-3') (SEQ ID NO. 6). The 480 bp phosphoglycerate kinase (PGK) promoter fragment was amplified from human placental genomic DNA (Promega, Madison, Wis.) based on published sequence (Pfeifer et al., Science 246:810-813, 1990) using the primers (5'-[…]-3') (SEQ ID NO. 7) and (5'-[…]-3') (SEQ ID NO. 8). The above fragments were ligated into the Xba I-Asp718 I vector fragment of pHIV.AP to generate pHIV2.AP, pHIV3.AP, pCMV.AP, pSVE.AP and PPGK.AP respectively. The tat-expression plasmid directed by HIV-LTR promoter, pHIV.tat, was generated by inserting the 400 bp EcoRV-HindIII fragment from pHIV.AP into the PvuII-HindIII vector fragment from pSV2tat72 (Frankel et al., Cell 55:1189-1193, 1988).
Transient transfections with various expression plasmids were performed on a human kidney embryonic cell line 293-EBNA (Invitrogen) using the cationic lipid DOTAP (Boehringer Mannheim). The cell culture media were changed 24 hr after transfection into a serum-free medium AIM V (Life Technologies) before addition of compounds or TNF-α (PeproTech) at the appropriate concentrations. AP activity measured by a colorimetric assay (Berger et al., Gene 66:1-10, 1988) was performed 19-24 hr later.

[4] = Viability of 293-EBNA cells (dye not stated); details: human
[5] = tested on: AP mRNA in 293tat cells; experiment: AP mRNA level in 293tat cells, Northern blot; format: cell-based, human; details: with TNF-α or IL-1β
Procedure: (§2) Nuclear extracts (A) from 293tat cells were tested by EMSA for activation of NFκB. A radiolabeled 40-mer covering the NFκB sequences in the HIV promoter was used as a probe. Cells were incubated with CT2576 at 12 μM, human TNF-α at 40 ng/ml or IL-1β at 1 ng/ml, or pre-incubated for 30 min. with CT2576 and then stimulated with TNF-α or IL-1β for 18 hr prior to making extracts. RNA was extracted from 293tat cells (B) after treatment with CT2576 without or with TNF-α or IL-1β for 18 hr. Northern blots analysis were performed using probes derived from AP cDNA and G3PDH cDNA as a control for normalization of mRNA level. AP activity was determined in cell supernatants from the various samples.
(§3) NFκB binding activity in nuclear extracts (Dignam et al., Nucleic Acids Res. 11:1475-1489, 1983) of cells was measured by electrophoretic mobility-shift assay (EMSA) (Carthew et al., Cell 43:439-448, 1985) using 5'-labeled double-stranded synthetic DNA with two NF-κB motifs. Northern blot analysis was performed with total RNA run on 1% agarose/formaldehyde gel and probed with ^32 P-labeled cDNA of AP and glyceraldehyde-3-phosphate dehydrogenase (G3PDH).

[6] = tested on: HIV-LTR promoter in 293-EBNA cells; experiment: AP reporter expression in 293-EBNA cells with HIV-LTR plasmids, TNF-α stimulation; format: cell-based, HIV; human cells
Procedure: FIG. 14 illustrates the effect of tat and TNF-α on HIV-LTR-mediated reporter gene expression in 293-EBNA cells. The y-axis refers to the relative amount of AP reporter gene activity present in the culture media of 293-EBNA cells after transient transfection with various plasmids. Freshly trypsinized 293-EBNA cells at 10^4 cells per sample were transfected with 2 μg of either pHIV.AP, pHIV2.AP, or pHIV3.AP alone or in combination with pSV2tat72 or pHIV.tat using the cationic lipid DOTAP. The plasmids pHIV.AP, pHIV2.AP, and pHIV3.AP contain nucleotides -453 to +80, -107 to +80, and -80 to +80 of the HIV-LTR sequence respectively. Transfected cells were plated in 96-well microtiter plates at 2,000 cells per well. The cell culture media were changed 24 hr later into new medium. The samples were incubated for another 24 hr with or without TNF-α (20 ng/ml). 2 μl of medium from each well was used for AP assay. The height of each column represents the mean of triplicate samples with error bar indicating the standard deviation of the mean.
AP reporter gene activity expressed in 293-EBNA cells transfected with either pHIV.AP alone or in combination with pSV2tat72, pHIV.tat or with TNF-α stimulation is shown in FIG. 14. The plasmid pHIV.AP contains the full-length HIV-LTR sequence that extends from nucleotides -453 to +80. The expression level of AP was low using the pHIV.AP construct alone, indicating the presence of negative regulatory elements in the HIV-LTR sequence. Induction with TNF-α increased the AP expression level by about 4 fold. The AP expression level increased by 15 to 70 fold in the presence of the tat expression plasmids pHIV.tat or pSV2tat72. […] TNF-α and tat in combination enhanced the AP expression level by two fold when using the pSV2tat72 construct, and by ten fold when using the pHIV.tat construct, but the final levels of AP activity were similar.

[7] = tested on: NFκB; experiment: NFκB activation in 293tat cells, electrophoretic mobility shift assay; format: cell-based, human; details: CT2576 12 μM, TNF-α 40 ng/ml or IL-1β 1 ng/ml
Procedure: as §2, §3

[8] = tested on: phosphatidic acid (PA) subspecies in 293tat cells; experiment: PA composition of 293tat cells by HPLC; format: cell-based, human
Procedure: One must first quantitatively and qualitatively separate PAs from the other lipids found in serum by a chemical extraction of lipids and high performance liquid chromatography (HPLC) to separate and detect PAs. […] Briefly, the method of Bligh et al. involves an organic extraction of lipids from biological tissue homogenates or fluids. One volume of sample and three volumes of methanol:chloroform (2:1) are vigorously shaken for 2 min. One volume of chloroform is added and then shaken vigorously for 30 sec. One volume of water is added and then shaken vigorously for 30 sec. The mixture is filtered and the upper aqueous layer is discarded. The lower organic layer contains a mixture of lipid classes. The method of Folch et al. involves the extraction of lipids from biological tissue homogenates or body fluids. One volume of sample plus 20 volumes of chloroform:methanol (2:1) are vigorously shaken for 2 min. The mixture is filtered and an amount of 0.1 N KCl equal to 20% of the extraction mixture volume is added and the mixture is shaken vigorously for 2 min. The aqueous and organic phases are allowed to separate. The upper aqueous layer is discarded. The lower organic layer contains a mixture of lipid classes. […] This method involves separation of lipids into their major classes by normal phase (silica) high performance liquid chromatography (HPLC). A 5 micron, 25 cm×0.45 cm silica HPLC column is connected to a binary solvent delivery system followed with a UV detector. The lipid sample is injected on the column and a solvent gradient is run at 1.0 ml/min. The solvent gradient is hexane:isopropanol:water in the proportions 3:4:0.75 run isocratically for 3 min, then ramped to hexane:isopropanol:water in the proportions 3:4:1.4 in 15 min, then run isocratically at the same proportions for 15 min. Detection is at 206 nm.
One of the steps after cell activation involves the hydrolysis of phosphatidylcholine (PC), the major phospholipid of cellular membranes, by phospholipases C and D, leading to the generation of second messengers, such as PA and DG, in the signal transduction cascade.

Compound: CCCCCCCCNCC(O)CCCCCCCCCN1C(=O)Cc2ccccc2C1=O (stereo not drawn) [CT1115, N-(11-octylamino-10-hydroxyundecyl)homophthalimide]
- IC50 [1]: 2 to 6 µM
- CC50 [2]: ~5 µM

Compound: CCCCCCCCCCCCNCC(O)CCCCCCCn1c(=O)c2c(ncn2C)n(C)c1=O (stereo not drawn) [CT2573, 1-(9-dodecylamino-8-hydroxynonyl)-3,7-dimethylxanthine]
- inhibition of AP expression (HIV-LTR promoter) ([3]; 293-EBNA cells, HIV promoter, in words): did not affect AP activity
- IC50 ([3]; Homo sapiens, 293-EBNA, read-out: concentration inhibiting AP expression by 50%): 1 to 4 µM
- CC50 [4]: ~5 µM

Compound: TNF-α
- AP transcript / mRNA steady-state level [5]: induction of AP transcripts
- fold enhancement of AP expression by TNF-α with pHIV.tat ([6]; TNF-α and tat in combination, pHIV.tat construct): ten
- fold enhancement of AP expression by TNF-α with pSV2tat72 ([6]; TNF-α and tat in combination, pSV2tat72 construct): two
- fold increase of AP expression level by TNF-α ([6]; pHIV.AP alone): about 4 fold
- activation of NFκB [7]: NFκB was activated
- increase of C14-16 saturated acyl chain PA peak ([8]; TNF-α 45 sec): up to 80%
- C14-16 saturated PA peak, share of total far UV absorbing lipids after TNF-α ([8]; TNF-α 45 sec (from 5.4%)): 9%
